Results taken from patent US6346278B1, “Lipid extract having anti-inflammatory activity” (Pharmalink International Limited, priority 1995, dated 2002).

What was measured:
Carrageenin paw oedema = experiment: Acute carrageenin paw oedema assay; assay type: in vivo, rat; details: for % Inhibition Oedema 1 hr / % Inhibition Oedema 2 hr: 30 mg/kg
Method: Female Wistar rats (180-220 gm) were pre-dosed p.o. or i.p. with test formulations. 40 minutes later they were injected in each rear paw with 0.1 ml saline containing 0.6 mg Na carrageenin. The subsequent paw oedema was quantified by measuring the increase in paw thickness after one and two hours with a screw gauge micrometer. […] [The oedema recedes after three hours with this dose of carrageenin.]

[1] = system: collagen (II)-induced auto-allergic arthritis; experiment: Collagen (II)-induced auto-allergic arthritis; details: for Rear paw inflammation Day 2 / Rear paw inflammation Day 4: paw inflamed by collagen (II) injection; for Percent Inhibitions Front paw inflam. / Percent Inhibitions Left rear paw / Percent Inhibitions Right rear paw: day 14
Method: Collagen (Type II) induced polyarthritis was induced in female Wistar rats by injection of collagen (II) with a non-arthritogenic adjuvant to sensitise the test animals.
PCO was given orally after dilution into olive oil (8 mg/ml) and administered at 2.5 ml/kg/day to give 20 mg/kg.
Prophylactic treatment was from day 1 to day 13 (i.e. total […]) orally (p.o.). […] PCO was diluted into olive oil (6 mg/ml) for p.o. dosing at 2.5 ml/kg/day to give 15 mg/kg, and diluted into olive oil-cineole (17.3 v/v) (10 mg/ml) for t.d. administration at 2 ml/kg/day to give 20 mg/kg.
Seatone™ was administered p.o. at 300 mg/kg; Nurofen™ was administered p.o. at 50 mg/kg; Na Aurothiomalate (ATM) was administered in 8 doses at 6.3 mg/kg subcutaneously (s.c.).

arthritic rats = experiment: Anti-arthritic assay: adjuvant-induced polyarthritis, treatment days 10-13; assay type: in vivo; details: for % Reduction in Inflammation: rear paw thickness day 14 vs control
Source text: Though more time consuming, this assay is of more value than the acute assay (described above) as it detects not only (i) those anti-inflammatory drugs acting in the acute assay (but often at lower ED50 values) but also (ii) other agents e.g. clobuzarit (CIoZic^R) or lobenzarit (CCA), which obviously have unique arthritis-suppressant properties but are not anti-oedemic/antipyretic or otherwise detectable in acute assays.
The protocol used is to pre-establish disease by injecting the arthritigen on Day 0, look for first signs of paw inflammation (usually manifest on Days 10-12) and then dose the animals with test materials for four days. Over this period, the paw inflammation in the untreated control animals “blooms” rapidly to reach a near maximum on Day 14. Drugs acting over this time-frame to hold down the paw swelling are certainly anti-symptomatic but rarely disease-ablating. On ceasing treatment, there is usually a recrudescence in symptoms. This however is a positive feature of this assay as it clearly indicates a) the drug has a finite action but gives some idea of its duration of efficacy by the rapidity (or otherwise) of the rebound; and b) the animals with minimal signs of disease on Day 14 reflected a positive drug effect rather than failure to respond to the original arthritigen (i.e. false negatives). An accurate description of this assay is “late prophylaxis”. Obviously by delaying treatment until after Day 14, one can look for “therapeutic activity”, but since changes may be slow or negligible within four days (even with some powerful NSAIDs), collection of adequate data is difficult.
Details of the protocol used are: inject the arthritigen into the tailbase of female Wistar rats (160-200 gm)=800 mcg heat-killed Mycobact tuberculosis suspended in 0.1 ml squalane in such a fashion as to avoid any blood vessels and to promote optimal drainage into the lymphatics. Ten days later, the animals were weighed, the thickness of the rear paws and tail was measured and signs of inflammation in the forepaws scored on a scale of 0 to 4 +. After dosing with test compounds once daily for four days (i.e. on Days 10 through 13 post-arthritigen), these measurements were repeated on Days 14 and 18 (i.e. after completion of treatment and again after four days rebound) to monitor the arthritis development. […]
Rats with the first signs of arthritis 10 days after inoculating with mycobacterial arthritogen were then treated orally with the test materials for 4 days only. Effectiveness of the test materials was measured as […] rear paw thickness on day 14 when compared to the control group H.

[2] = system: Kaolin-induced paw oedema; experiment: Kaolin-induced paw oedema; assay type: in vivo, rat; details: 150 mg/kg p.o., without synergist
Method: Kaolin-induced paw oedema was investigated as a possible assay for PCO since this inflammation is slower developing than that induced with carrageenin (which recedes after three hours). The protocol involves injecting 5 mg kaolin, suspended in water (not saline, in which it aggregates), into each rear paw 40 minutes after dosing the rats with PCO given both p.o. or i.p. as dispersions prepared with 0.02% Tween in either water (p.o.) or saline (i.p.). The paw swelling was then read two hours and five hours after the kaolin injection.

stomach = experiment: Gastro-toxicity assay; assay type: in vivo, rat
Method: Gastro toxicity studies were carried out on female Wistar rats with established arthritis initiated with collagen (type II), not on drug therapy. Aspirin and PCO were suspended with 0.04% Tween-20 for oral dosing, after fasting animals overnight. […]

[3] = with MPL (Misoprostal 0.5 mg/kg p.o.)
[4] = 50 mg/kg p.o. x15, prophylactic
[5] = 50 mg/kg p.o. x15, prophylactic day 1 to day 13
[6] = 6.3 mg/kg s.c. in saline x8, every second day
[7] = 6.3 mg/kg s.c. x8, every second day

Question: How did the “% Inhibition Oedema 1 hr” value (Carrageenin paw oedema; [3]) turn out when `CC(C)Cc1ccc(C(C)C(=O)O)cc1` (stereo not shown) [Nurofen, ibuprofen] was run?
Answer: 56%

Question: And the “% Inhibition Oedema 2 hr” value (Carrageenin paw oedema; [3])?
Answer: 58%

Question: What about the “% Inhibition Oedema 1 hr” value (Carrageenin paw oedema; without MPL) of the same molecule?
Answer: 37%

Question: And the “% Inhibition Oedema 2 hr” value (Carrageenin paw oedema; without MPL)?
Answer: 42%

Question: And the “% Inhibition Front paw” value ([1]; 40 mg/kg, days 8-14)?
Answer: 72%

Question: What about the “% Inhibition Rear L. paw” value ([1]; 40 mg/kg, days 8-14) of the same molecule?
Answer: 54%

Question: What about the “% Inhibition Rear R. paw” value ([1]; 40 mg/kg, days 8-14) of the same molecule?
Answer: 07%

Question: And the “Mean Differences Days 8-15 Ft. Paw Inflam.” value ([1]; 40 mg/kg, days 8-14)?
Answer: 0.7 +

Question: What about the “Mean Differences Days 8-15 Rear R. Paw” value ([1]; 40 mg/kg, days 8-14) of the same molecule?
Answer: 1.48 mm

Question: And the “Mean Differences Days 8-15 ΔWt” value ([1]; 40 mg/kg, days 8-14)?
Answer: +15 gm

Question: And the “Mean Differences Days 8-15 Rear L. Paw” value ([1]; 40 mg/kg, days 8-14 (7 daily doses), therapeutic)?
Answer: 0.82 mm

Question: And the “Day 14: Signs arthritis Front paw inflam.” value [1, 4]?
Answer: 2.5+

Question: What about the “Day 14: Signs arthritis Left rear paw” value [1, 4] of the same molecule?
Answer: 1.35 mm

Question: What about the “Day 14: Signs arthritis Right rear paw” value [1, 4] of the same molecule?
Answer: 1.72 mm

Question: What about the “Percent Inhibitions rear paw inflammation Day 2” value [1, 4] of the same molecule?
Answer: (−05) %

Question: What about the “Percent Inhibitions rear paw inflammation Day 4” value [1, 4] of the same molecule?
Answer: (−20) %

Question: What about the “ΔWt(0-14)” value [1, 4] of the same molecule?
Answer: +12 gm

Question: And the “Rear paw inflammation Day 2” value [1, 5]?
Answer: 1.48 mm

Question: What about the “Rear paw inflammation Day 4” value [1, 5] of the same molecule?
Answer: 1.52 mm

Question: What about the “Percent Inhibitions Front paw inflam.” value [1, 4] of the same molecule?
Answer: (−14) %

Question: And the “Percent Inhibitions Left rear paw” value [1, 4]?
Answer: 32%

Question: And the “Percent Inhibitions Right rear paw” value [1, 4]?
Answer: 02%

Question: What about the “Differences Days 15-18 (Rebound) Front paw” value ([1]; after 40 mg/kg, days 8-14) of the same molecule?
Answer: 1.1+

Question: What about the “Differences Days 15-18 (Rebound) Rear L. paw” value ([1]; after 40 mg/kg, days 8-14) of the same molecule?
Answer: 0.38

Question: What about the “Differences Days 15-18 (Rebound) Rear R. paw” value ([1]; after 40 mg/kg, days 8-14) of the same molecule?
Answer: 0.38

Question: What about the “Differences Days 15-18 (Rebound) ΔWt.” value ([1]; after 40 mg/kg, days 8-14) of the same molecule?
Answer: +05

Question: `O=C([O-])CC([S-])C(=O)[O-].[Au+].[Na+].[Na+]` (stereo not shown) [ATM, sodium aurothiomalate] was tested. Which “Rear paw inflammation Day 2” value [1, 6] did it give?
Answer: 1.00 mm

Question: And the “Rear paw inflammation Day 4” value [1, 6]?
Answer: 0.68 mm

Question: And the “Day 14: Signs arthritis Front paw inflam.” value [1, 7]?
Answer: 1.3+

Question: What about the “Day 14: Signs arthritis Left rear paw” value [1, 7] of the same molecule?
Answer: 0.47 mm

Question: What about the “Day 14: Signs arthritis Right rear paw” value [1, 7] of the same molecule?
Answer: 0.70 mm

Question: And the “Percent Inhibitions rear paw inflammation Day 2” value [1, 7]?
Answer: 29%

Question: What about the “Percent Inhibitions rear paw inflammation Day 4” value [1, 7] of the same molecule?
Answer: 46%

Question: What about the “Percent Inhibitions Front paw inflam.” value [1, 7] of the same molecule?
Answer: 41%

Question: And the “Percent Inhibitions Left rear paw” value [1, 7]?
Answer: 76%

Question: What about the “Percent Inhibitions Right rear paw” value [1, 7] of the same molecule?
Answer: 60%

Question: What about the “ΔWt(0-14)” value ([1]; 6.3 mg/kg s.c. x8, weight gain may be misleading (possible incipient kidney damage)) of the same molecule?
Answer: (+24) gm

Question: What about the toxic dose ([1]; s.c. in saline every second day, higher doses were toxic) of the same molecule?
Answer: > 6.3 mg/kg

Question: Which ED50 (Carrageenin paw oedema; Rattus norvegicus, acute carrageenin assay) does the source give for `CC(=O)Oc1ccccc1C(=O)O` [Aspirin] here?
Answer: ~150 mg/kg

Question: What about the “effective dose in the standard anti-arthritic assay” value (arthritic rats; adjuvant-induced rat polyarthritis) of the same molecule?
Answer: 300 mg/kg

Question: What about the “% Inhibition Oedema 2 HR” value ([2]; 2 HR) of the same molecule?
Answer: 55%

Question: What about the “% Inhibition Oedema 5 HR” value ([2]; 5 HR) of the same molecule?
Answer: 51%

Question: And the “effect on the stomach (in words)” value (stomach; 300 mg/kg (20 times an effective dose of PCO))?
Answer: considerable gastric damage

Question: And the Gastric lesion index (stomach; High arthritis with 0.15 N HCl co-administered orally, oral in 0.04% Tween-20)?
Answer: >112

Question: What about the Gastric lesion index (stomach; High arthritis, Day 15, oral in 0.04% Tween-20, fasted overnight) of the same molecule?
Answer: 82

Question: And the Gastric lesion index (stomach; Low arthritis, Day 32, oral in 0.04% Tween-20, fasted overnight)?
Answer: 41

Question: Which results are given for `COc1ccc2c(c1)c(CC(=O)O)c(C)n2C(=O)c1ccc(Cl)cc1` [Indomethacin, indomethacin]?
Answer: % Reduction in Inflammation (arthritic rats; 1 mg/kg orally for 4 days): 26%; % Reduction in Inflammation (arthritic rats; 3 mg/kg orally for 4 days): 68%; % Reduction in Inflammation (arthritic rats; 5 mg/kg orally for 4 days): 83%
